“Also recorded” adds a separate entry of the source.
Experiments:
Assay type in all cases: cell-based, human
[1] = test system: HCT-116 (colon cancer cells); experiment: In vitro cytotoxicity, MTT assay, HCT-116; conditions: for IC50: 72 h incubation, HCT-116 colon cancer cells, read-out: IC50 values against HCT-116; for in vitro cytotoxicity in words, HCT-116: HCT-116, compared to cisplatin
Protocol: (§1) The solutions of Pt(II) complexes 1-5 and cisplatin (classical standard control) with 1.0 μM, 5.0 μM, 10.0 μM, 25.0 μM, 50.0 μM and 100.0 μM concentrations were prepared in DMEM. The cancer cells, HeLa (cervical cancer), A549 (Lung cancer) and HCT-116 (colon cancer) were seeded and maintained in quadruplicate in a 96-well tissue culture plate at 5×10^4 cells per well in 200 μL of the same medium. The cancer cells were incubated for 24 hours before the treatment. All compounds were dissolved in 50 vol % DMSO (50/50 v/v DMSO/DMEM). Therefore, DMSO was used as a negative control. The final DMSO concentration in each well, was less than 0.1%. The cancer cells were treated with the synthesized complexes (1-5) along with cisplatin and the resultant cultures were incubated for 72 h. The medium of wells was discarded and 100 μL DMEM containing MTT (3-(4,5-dimethylthiazol-2-yl)-2,5-diphenyltetrazolium bromide) (5 mg/mL) was added to the wells and incubated in a CO2 incubator at 37° C. in the dark for 4 hrs. After incubation, a purple colored formazan (artificial chromogenic dye, a product of the reduction of water insoluble tetrazolium salts e.g., MTT by dehydrogenases and reductases) in the cells is produced and appeared as dark crystals in the bottom of the wells. The medium of culture was discarded from each well carefully to avoid disruption of the monolayer. 100 μL of isopropanol was added in each well. The solution was thoroughly mixed in the wells to dissolve the formazan crystals which ultimately results into a purple solution. The absorbance of the 96-well plate was taken at 570 nm with Mithras 2LB943 against reagent blank.
(§2) The in vitro cytotoxicity of the prepared compounds (1-5) and cisplatin in DMSO was examined by the MTT assay against three human cancer cells namely, HeLa (cervical cancer cells), A549 (lung cancer cells) and HCT-116 (colon cancer cells). The survival of the cells as a function of concentration of compounds 1-5 (and compared to cisplatin) is shown in FIGS. 1A-1F, 2, 3A-3F, 4, 5A-5F, and 6. […] See Altoum A O S, Alhoshani A, Alhosaini K, et al (2017a) Synthesis, characterization and in vitro cytotoxicity of platinum(II) complexes of selenones [Pt(selenone)2Cl2]. J Coord Chem 70:1020-1031; Altoum A O S, Vančo J, Křikavová R, et al (2017b) Synthesis, structural characterization and cytotoxicity evaluation of platinum(II) complexes of heterocyclic selenones. Polyhedron 128:2-8; Ahmad S, Altoum A O S, Vančo J, et al (2018) Synthesis, crystal structure and anticancer activity of tetrakis(N-isopropylimidazolidine-2-selenone)platinum(II) chloride. J Mol Struct 1152:232-236; and Alhoshani A, Seliman A A A, Altoum A O, et al (2019) Synthesis, X-ray structure and in vitro cytotoxicity of trans-diammineplatinum(II) complexes of selenones, trans-[Pt(NH3)2(selenone)2](NO3)2. Polyhedron 158:234-240, each incorporated herein by reference in their entirety.

[2] = test system: HeLa (cervical cancer cells); experiment: In vitro cytotoxicity, MTT assay, HeLa; conditions: for IC50: 72 h incubation, HeLa cervical cancer cells, read-out: IC50 values against HeLa; for in vitro cytotoxicity in words, HeLa: compared to cisplatin
Protocol: as §1, §2

A549 (lung cancer cells) = experiment: In vitro cytotoxicity, MTT assay, A549; conditions: for IC50: 72 h incubation, A549 lung cancer cells, read-out: IC50 values against A549; for in vitro cytotoxicity in words, A549: A549, compared to cisplatin
Protocol: as §1, §2

| Structure (SMILES) | IC50 [1] | IC50 [2] | IC50 (A549 (lung cancer cells)) | in vitro cytotoxicity in words, HCT-116 [1] | in vitro cytotoxicity in words, HeLa [2] | in vitro cytotoxicity in words, A549 (A549 (lung cancer cells)) |
| --- | --- | --- | --- | --- | --- | --- |
| N.N.[Cl][Pt][Cl] [Cisplatin, cis-diamminedichloridoplatinum(II), reference compound] | > 100 µM | 8.1 µM | 12.5 µM |  |  |  |
| CNC(NC)=[Se][Pt+2][Se]=C(NC)NC.N.N.O=[N+]([O-])[O-].O=[N+]([O-])[O-] [Complex 2, [Pt(NH3)2(Me2Seu)2](NO3)2] | > 100 µM | 12.2 µM | 54 µM | almost inactive | cytotoxicity comparable to cisplatin | almost inactive |
| C1CCNC(=[Se][Pt+2][Se]=C2NCCCCN2)NC1.N.N.O=[N+]([O-])[O-].O=[N+]([O-])[O-] [Complex 5, [Pt(NH3)2(DiapSe)2](NO3)2] | > 100 µM | > 100 µM | > 100 µM | ineffective | ineffective | ineffective |
| N.N.NC(N)=[Se][Pt+2][Se]=C(N)N.O=[N+]([O-])[O-].O=[N+]([O-])[O-] [Complex 1, [Pt(NH3)2(Seu)2](NO3)2] | 5.4 µM | > 100 µM | > 100 µM | has activity against HCT-116 only; also recorded: excellent cytotoxic activity | no activity | no activity |
| C1CNC(=[Se][Pt+2][Se]=C2NCCCN2)NC1.N.N.O=[N+]([O-])[O-].O=[N+]([O-])[O-] [Complex 4, [Pt(NH3)2(DiazSe)2](NO3)2] | 7.7 µM | 3.7 µM | 6.74 µM | cytotoxicity higher than cisplatin; also recorded: excellent cytotoxic activity | cytotoxicity higher than cisplatin; also recorded: excellent cytotoxic activity | cytotoxicity higher than cisplatin; also recorded: excellent cytotoxic activity |

Source: patent US11571430B2, “Platinum(II) ammine selenourea complexes and methods of treating cancer” (KING FAHD UNIVERSITY OF PETROLEUM AND MINERALS, priority 2020, dated 2023)
